Structures can show the parent of a compound that is named as a salt.
Assay: in vitro
Conditions: rat, gh3-tre-luc cells

Structure (SMILES) | CC50 at 24 h (AC50 (uM) modified / 1000) [µM] | further results
O=[N+]([O-])NC1=NCCN1Cc1ccc(Cl)nc1 [Imidacloprid] | > 90 | 
CCOC(=O)[C@H](CCc1ccccc1)N[C@@H](C)C(=O)N1C(=O)N(C)C[C@H]1C(=O)O [Imidapril hydrochloride] | > 50 | 
c1c[nH]cn1 [Imidazole] | > 100 | 
O=C(NCNC(=O)NC1C(=O)NC(=O)N1CO)NC1C(=O)NC(=O)N1CO (stereo not drawn) [Imidazolidinyl urea] | > 90 | 
O=C(Nc1cccc(C2=NCCN2)c1)Nc1cccc(C2=NCCN2)c1 [Imidocarb dipropionate] | > 50 | 
NC(=O)NC(N)=O [Imidodicarbonic diamide] | > 90 | 
CCn1ccnc1CC1COc2ccccc2O1 (stereo not drawn) [Imiloxan] | > 50 | 
O=C(O)CNCC(=O)O [Iminodiacetic acid] | > 5 | 
N#CCNCC#N [Iminodiacetonitrile] |  | CC50 at 24 h (AC50 (uM) modified / 1000, Tox21_110001=Tox21_301075, viability, 1 nM T3 present, 24 h): > 90 µM
C[C@@H](O)[C@H]1C(=O)N2C(C(=O)O)=C(SCCN=CN)C[C@H]12 [Imipenem] | > 20 | 
C#CCN1CC(=O)N(COC(=O)C2C(C=C(C)C)C2(C)C)C1=O (stereo not drawn) [Imiprothrin] | > 50 | 
CC(C)Cn1cnc2c(N)nc3ccccc3c21 [Imiquimod] | > 50 | 
CC(C)=CCOc1c2occc2cc2ccc(=O)oc12 [Imperatorin] | > 50 | 
CS(=O)(=O)OCCCNCCCOS(C)(=O)=O [Improsulfan tosylate] | > 50 | 
c1ccc2c(CCC3CCNCC3)c[nH]c2c1 [Indalpine hydrochloride] | 18.8 | 
CN[C@@H]1C[C@@H](c2ccc(Cl)c(Cl)c2)c2ccccc21 [Indatraline hydrochloride] | 10 | 
C1=Cc2ccccc2C1 [Indene] | > 90 | 
O=C1C(c2[nH]c3ccccc3c2O)=Nc2ccccc21 [Indigo dye] | > 90 | 
Cc1c(C)n(Cc2ccccc2)c2ccc(C(=O)OCCN(C)C)cc12 [Indocate] | 8.6 | 
CC1(C)C(/C=C/C=C/C=C/C=C2\N(CCCCS(=O)(=O)O)c3ccc4ccccc4c3C2(C)C)=[N+](CCCCS(=O)(=O)[O-])c2ccc3ccccc3c21 [Indocyanine green] | 19.5 | 
O=C(O)Cc1c[nH]c2ccccc12 [Indole-3-acetic acid] | > 90 | 

Structure (SMILES) | CC50 at 24 h (AC50 (uM) modified / 1000) [µM] | further results
O=C(O)CCCc1c[nH]c2ccccc12 [Indole-3-butyric acid] | > 90 | 
OCc1c[nH]c2ccccc12 [Indole-3-carbinol] | > 90 | 
O=C(O)C(=O)Cc1c[nH]c2ccccc12 [Indole-3-pyruvic acid] | > 90 | 
c1ccc2[nH]ccc2c1 [Indole] | > 90 | 
COc1ccc2c(c1)c(CC(=O)O)c(C)n2C(=O)c1ccc(Cl)cc1 [Indomethacin] | > 90 | 
CC(C(=O)O)c1ccc(N2Cc3ccccc3C2=O)cc1 (stereo not drawn) [Indoprofen] | > 50 | 
O=C(NC1CCN(CCc2c[nH]c3ccccc23)CC1)c1ccccc1 [Indoramin hydrochloride] | 22.2 | 
COC(=O)C(CN)c1c[nH]c2ccc(OC)cc12 (stereo not drawn) [Indorenate hydrochloride] | > 50 | 
COC(=O)N(C(=O)N1CO[C@@]2(C(=O)OC)Cc3cc(Cl)ccc3C2=N1)c1ccc(OC(F)(F)F)cc1 [Indoxacarb] | > 70 | 
O=C(N[C@@H](Cc1ccccc1)[C@@H](O)C(=O)N1C[C@@H](O)[C@@H](O)C1)c1cc2cc(Cl)ccc2[nH]1 [Ingliforib] | 78.2 | 
OC[C@H]1O[C@@H](n2cnc3c(O)ncnc32)[C@H](O)[C@@H]1O [Inosine] | > 50 | 
CC(=O)N(CC(C)C(=O)O)c1c(I)cc(I)c(N)c1I (stereo not drawn) [Iocetamic acid] | > 20 | 
CC(=O)NCc1c(I)c(NC(C)=O)c(I)c(C(=O)O)c1I [Iodamide] | > 50 | 
COP(=S)(OC)Oc1cc(Cl)c(I)cc1Cl [Iodenphos] |  | CC50 at 24 h (AC50 (uM) modified / 1000, Tox21_110001=Tox21_300910, viability, 1 nM T3 present, 24 h): > 90 µM
O=C(CCCCC(=O)Nc1c(I)cc(I)c(C(=O)O)c1I)Nc1c(I)cc(I)c(C(=O)O)c1I [Iodipamide] | > 50 | 
CC(=O)N(CC(O)CN(C(C)=O)c1c(I)c(C(=O)NC[C@@H](O)CO)c(I)c(C(=O)NC[C@@H](O)CO)c1I)c1c(I)c(C(=O)NC[C@@H](O)CO)c(I)c(C(=O)NC[C@@H](O)CO)c1I [Iodixanol] | > 20 | 
NC(=O)CI [Iodoacetamide] | > 90 | 
O=C(O)C(Cc1cc(I)c(O)c(I)c1)c1ccccc1 (stereo not drawn) [Iodoalphionic acid] | > 50 | 
Cc1c(I)c(=O)n(-c2ccccc2)n1C [Iodoantipyrine] | > 50 | 
IC(I)I [Iodoform] | > 90 | 
O=C1C(I)=CC(=C(c2cc(I)c(O)c(I)c2)c2ccccc2C(=O)O)C=C1I [Iodophthalein sodium] | 41.3 | 

Structure (SMILES) | CC50 at 24 h (AC50 (uM) modified / 1000) [µM] | further results
O=C1OC(c2cc(I)c(O)c(I)c2)(c2cc(I)c(O)c(I)c2)c2ccccc21 [Iodophthalein] | 36.2 | 
Oc1c(I)cc(I)c2cccnc12 [Iodoquinol] | > 50 | 
COC(=O)c1ccc(I)cc1S(=O)(=O)NC(=O)Nc1nc(C)nc(OC)n1 [Iodosulfuron-methyl-sodium] | > 90 | 
CC(C)NC(C)Cc1ccc(I)cc1 (stereo not drawn) [Iofetamine hydrochloride] |  | CC50 at 24 h (AC50 (uM) modified / 1000, Tox21_110001=Tox21_111239, viability, 1 nM T3 present, 24 h): > 50 µM
CCOC(=O)c1ncn2c1CN(C)C(=O)c1c(I)cccc1-2 [Iomazenil] | > 50 | 
CN(C(=O)CO)c1c(I)c(C(=O)NCC(O)CO)c(I)c(C(=O)NCC(O)CO)c1I (stereo not drawn) [Iomeprol] | > 50 | 
C[C@H](O)C(=O)Nc1c(I)c(C(=O)NC(CO)CO)c(I)c(C(=O)NC(CO)CO)c1I [Iopamidol] | > 20 | 
CCC(Cc1c(I)cc(I)c(O)c1I)C(=O)O (stereo not drawn) [Iophenoxic acid] | > 50 | 
O=C(NCC(O)CO)c1c(I)c(C(=O)NCC(O)CO)c(I)c(N(CCO)C(=O)CO)c1I (stereo not drawn) [Ioversol] | > 20 | 
CNC(=O)c1c(I)c(C(=O)NCC(=O)Nc2c(I)c(C(=O)O)c(I)c(C(=O)NCCO)c2I)c(I)c(N(C)C(C)=O)c1I [Ioxaglic acid] | > 50 | 
CC(=O)N(CC(O)CO)c1c(I)c(C(=O)NCCO)c(I)c(C(=O)NCC(O)CO)c1I (stereo not drawn) [Ioxilan] | > 50 | 
N#Cc1cc(I)c(O)c(I)c1 [Ioxynil] | 49.1 | 
CC(C)C1CCC(Cc2ccc(Cl)cc2)C1(O)Cn1cncn1 (stereo not drawn) [Ipconazole] | 41.7 | 
Nc1c2c(nc3c1CCC3)CCCC2 [Ipidacrine hydrochloride hydrate] | > 50 | 
CN(C)/C=N/c1c(I)cc(I)c(CCC(=O)O)c1I [Ipodate sodium] | > 50 | 
CC(C)Oc1ccc2c(=O)c(-c3ccccc3)coc2c1 [Ipriflavone] | > 50 | 
CC(C)NC(=O)N1CC(=O)N(c2cc(Cl)cc(Cl)c2)C1=O [Iprodione] | > 90 | 
CC(C)CCCC(C)NC(C)C (stereo not drawn) [Iproheptine] | > 50 | 
CC(C)NNC(=O)c1ccncc1 [Iproniazid sulfate] | > 50 | 
CC(C)c1ncc([N+](=O)[O-])n1C [Ipronidazole] | > 50 | 
Cc1ccc(C(C)NC(=O)[C@@H](NC(=O)OC(C)C)C(C)C)cc1 (stereo partly drawn) [Iprovalicarb] | > 90 | 

Structure (SMILES) | CC50 at 24 h (AC50 (uM) modified / 1000) [µM] | further results
O=C1c2ccccc2S(=O)(=O)N1CCCCN1CCN(c2ncccn2)CC1 [Ipsapirone] | > 50 | 
CCCCC1=NC2(CCCC2)C(=O)N1Cc1ccc(-c2ccccc2-c2nnn[nH]2)cc1 [Irbesartan] | > 50 | 
CC(C)(C)c1cc(CCC(=O)OCC(COC(=O)CCc2cc(C(C)(C)C)c(O)c(C(C)(C)C)c2)(COC(=O)CCc2cc(C(C)(C)C)c(O)c(C(C)(C)C)c2)COC(=O)CCc2cc(C(C)(C)C)c(O)c(C(C)(C)C)c2)cc(C(C)(C)C)c1O [Irganox 1010] | > 40 | 
CCc1c2c(nc3ccc(OC(=O)N4CCC(N5CCCCC5)CC4)cc13)-c1cc3c(c(=O)n1C2)COC(=O)[C@]3(O)CC [Irinotecan hydrochloride] | > 50 | 
Nc1nc(N)nc(-c2cc(Cl)ccc2Cl)n1 [Irsogladine maleate] | > 50 | 
CC(C)NCC(O)COc1ccccc1-n1cccc1 (stereo not drawn) [Isamoltan] | > 50 | 
O=C1Nc2ccccc2C1=O [Isatin] | > 90 | 
O=C(O)CCCC/C=C(\c1ccccc1)c1cccnc1 [Isbogrel] | > 50 | 
CC(C)Cn1cnc2c1c(=O)n(C)c(=O)n2C [Isbufylline] | > 50 | 
CN[C@@H]1[C@@H](O)[C@@H](O[C@@H]2[C@@H](O)[C@H](O[C@H]3O[C@H](CN)[C@@H](O)[C@H](O)[C@H]3O)[C@@H](N)C[C@H]2NC(=O)[C@@H](O)CN)OC[C@]1(C)O [Isepamicin sulfate] | > 50 | 
O=C1O[C@H]([C@H](O)CO)C(O)=C1O [Isoascorbic acid] | > 90 | 
CC1(C)[C@@H]2CC[C@@]1(C)[C@H](O)C2 [Isoborneol] | > 90 | 
CC(=O)O[C@@H]1C[C@H]2CC[C@]1(C)C2(C)C [Isobornyl acetate] | > 90 | 
C=C(C)C(=O)OC1C[C@H]2CC[C@]1(C)C2(C)C (stereo partly drawn) [Isobornyl methacrylate] | > 90 | 
CC(C)COC(=O)/C=C/c1ccccc1 [Isobutyl 3-phenylacrylate] | > 90 | 
CC(C)COC(=O)COc1cc(Cl)c(Cl)cc1Cl [Isobutyl (2,4,5-trichlorophenoxy)acetate] | > 90 | 
CC(=O)OCC(C)C [Isobutyl acetate] | > 90 | 
C=CC(=O)OCC(C)C [Isobutyl acrylate] | > 90 | 
CC(C)COC(=O)c1ccccc1 [Isobutyl benzoate] | > 90 | 
CC(C)COC(=O)C(C)C [Isobutyl isobutyrate] | > 90 | 
C=C(C)C(=O)OCC(C)C [Isobutyl methacrylate] | > 90 | 

From paper PMC6792352, “Limited Chemical Structural Diversity Found to Modulate Thyroid Hormone Receptor in the Tox21 Chemical Library” (Environmental Health Perspectives, 2019)
